{
  "source": "ChEMBL document CHEMBL6071139",
  "about": "“Recent discovery of natural substances with cathepsin L-inhibitory activity for cancer metastasis suppression” (Eur J Med Chem, 2024)",
  "key": {"Procathepsin L [1]": {"target": "T1, Procathepsin L (Homo sapiens, UniProt P07711)", "T1 sequence (P07711 whole entry)": "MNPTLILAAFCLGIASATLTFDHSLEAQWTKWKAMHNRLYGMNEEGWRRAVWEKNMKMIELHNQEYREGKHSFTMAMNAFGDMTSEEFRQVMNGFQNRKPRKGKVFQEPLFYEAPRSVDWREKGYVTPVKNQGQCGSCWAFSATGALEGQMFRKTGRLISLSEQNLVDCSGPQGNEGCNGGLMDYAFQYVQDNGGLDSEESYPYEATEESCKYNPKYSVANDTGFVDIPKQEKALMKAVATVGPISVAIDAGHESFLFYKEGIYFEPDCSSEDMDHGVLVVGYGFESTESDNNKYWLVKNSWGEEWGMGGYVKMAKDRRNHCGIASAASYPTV", "assay": "Inhibition of CTSL (unknown origin) using Z-Phe-Arg-AMC as substrate by fluorometric assay"}, "Procathepsin L [2]": {"target": "T1, Procathepsin L", "assay": "Inhibition of CTSL (unknown origin)"}, "Procathepsin L [3]": {"target": "T1, Procathepsin L", "assay": "Inhibition of CTSL (unknown origin) using Z-Phe-Arg-AMC as substrate preincubated for 30 mins followed by substrate addition measured after 6 mins by fluorescence based assay"}, "[4]": {"assay": "Lipophilicity, logP of compound", "conditions": "octanol/water"}},
  "data": [
    {"smiles": "O=C(O)/C=C/c1ccc(O)cc1O", "values": [
      {"measurement": "IC50", "setting": "Procathepsin L [1]", "result": 930, "unit": "µM"}
    ]},
    {"smiles": "O=C(N[C@@H](Cc1ccccc1)C(=O)OC[C@H](Cc1ccccc1)NS(=O)(=O)c1ccc(Br)cc1)c1ccccc1", "values": [
      {"measurement": "IC50", "setting": "Procathepsin L [2]", "result": 6, "unit": "µM"}
    ]},
    {"smiles": "Cc1ccc(S(=O)(=O)/C=C/C(=O)[C@H](CC(C)C)NC(=O)[C@H](CC(C)C)NC(=O)OCc2ccccc2)cc1", "values": [
      {"measurement": "Ki", "setting": "Procathepsin L [2]", "result": 0.0085, "unit": "µM"}
    ]},
    {"smiles": "Cc1ccc(S(=O)(=O)N[C@@H](Cc2ccccc2)C(=O)OC[C@H](Cc2ccccc2)NC(=O)c2ccccc2)cc1", "values": [
      {"measurement": "IC50", "setting": "Procathepsin L [3]", "result": 30.2, "unit": "µM"}
    ]},
    {"smiles": "O=C(N[C@H](COC(=O)[C@H](Cc1ccccc1)NC(=O)c1ccccc1)Cc1ccccc1)c1ccccc1", "note": "[ASPERPHENAMATE]", "values": [
      {"measurement": "IC50", "setting": "Procathepsin L [2]", "result": 91.2, "unit": "µM"}
    ]},
    {"smiles": "CCOC(=O)/C=C/C(=O)[C@H](CC(C)C)NC(=O)[C@H](Cc1ccccc1)NC(=O)OCc1ccccc1", "values": [
      {"measurement": "Ki", "setting": "Procathepsin L [2]", "result": 0.012, "unit": "µM"}
    ]},
    {"smiles": "C[C@@H](/C=C/[N+](=O)[O-])NC(=O)[C@H](Cc1ccc([N+](=O)[O-])cc1)NC(=O)OCc1ccccc1", "values": [
      {"measurement": "logP", "setting": "[4]", "result": 1.85},
      {"measurement": "Ki", "setting": "Procathepsin L [2]", "result": 0.0039, "unit": "µM"}
    ]},
    {"smiles": "O=C(N[C@H](COC(=O)[C@H](Cc1ccccc1)NS(=O)(=O)c1cccc(Br)c1)Cc1ccccc1)c1ccccc1", "values": [
      {"measurement": "IC50", "setting": "Procathepsin L [2]", "result": 5.8, "unit": "µM"}
    ]},
    {"smiles": "C[C@@H](/C=C/[N+](=O)[O-])NC(=O)[C@H](Cc1c[nH]c2ccccc12)NC(=O)OCc1ccccc1", "values": [
      {"measurement": "logP", "setting": "[4]", "result": 1.61},
      {"measurement": "Ki", "setting": "Procathepsin L [2]", "result": 0.0011, "unit": "µM"}
    ]}
  ]
}
